Source: ChEMBL document CHEMBL1201862, “PubChem BioAssay data set” (2004)
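Test compounds were applied to cells in 96-well plates for 48 hours at 5 doses. GI50 is the concentration that inhibits growth by half.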 Activity calls are given as the source filed them. Rule as the data show it: active = GI50 up to about 1.1 µM and inactive = higher.

Legend:
Assay in all cases: growth of human tumour cells (NCI), 48 h
[1] = tested on: SK-MEL-5
[2] = tested on: DLD-1
[3] = tested on: HL-60
[4] = tested on: DMS-114
[5] = tested on: OVCAR-5
[6] = tested on: U-251
[7] = tested on: UACC-62
[8] = tested on: SF-539
[9] = tested on: Malme-3M
[10] = tested on: SK-MEL-2
[11] = tested on: M14
[12] = tested on: K562
[13] = tested on: LOX IMVI
[14] = tested on: UACC-257
[15] = tested on: HOP-18
[16] = tested on: HOP-62
[17] = tested on: COLO 205
[18] = tested on: SW-620
[19] = tested on: IGROV-1
[20] = tested on: A549
[21] = tested on: RPMI-8226
[22] = tested on: HOP-92
[23] = tested on: LXFL 529
[24] = tested on: TK-10
[25] = tested on: SNB-75
[26] = tested on: SF-268
[27] = tested on: NCI-H226
[28] = tested on: NCI-H23
[29] = tested on: SK-MEL-28
[30] = tested on: CAKI-1
[31] = tested on: HCT-116
[32] = tested on: NCI-H460
[33] = tested on: SF-295
[34] = tested on: HT-29
[35] = tested on: CCRF-CEM
[36] = tested on: OVCAR-4
[37] = tested on: UO-31
[38] = tested on: SR
[39] = tested on: KM12
[40] = tested on: SN12C
[41] = tested on: HCT-15
[42] = tested on: NCI-H522
[43] = tested on: M19-MEL
[44] = tested on: ACHN
[45] = tested on: SK-OV-3
[46] = tested on: RXF 393
[47] = tested on: OVCAR-8
[48] = tested on: 786-0
[49] = tested on: DMS-273
[50] = tested on: MOLT-4
[51] = tested on: EKVX
[52] = tested on: OVCAR-3
[53] = tested on: SNB-19
[54] = tested on: HCC 2998
[55] = tested on: KM-20L2
[56] = tested on: SNB-78
[57] = tested on: A498
[58] = tested on: XF498

Cc1ccc(F)c2c(=O)cc(-c3ccccc3)[nH]c12
GI50 [1]: 87.5 µM (inactive) | GI50 [2]: > 100 µM (inactive) | GI50 [3]: > 100 µM (inactive) | GI50 [4]: > 100 µM (inactive) | GI50 [5]: > 100 µM (inactive) | GI50 [6]: > 100 µM (inactive) | GI50 [7]: > 100 µM (inactive) | GI50 [8]: > 100 µM (inactive) | GI50 [9]: > 100 µM (inactive) | GI50 [10]: > 100 µM (inactive) | GI50 [11]: > 100 µM (inactive) | GI50 [12]: > 100 µM (inactive) | GI50 [13]: > 100 µM (inactive) | GI50 [14]: > 100 µM (inactive) | GI50 [15]: > 100 µM (inactive) | GI50 [16]: > 100 µM (inactive) | GI50 [17]: > 100 µM (inactive) | GI50 [18]: > 100 µM (inactive) | GI50 [19]: > 100 µM (inactive) | GI50 [20]: > 100 µM (inactive) | GI50 [21]: > 100 µM (inactive) | GI50 [22]: > 100 µM (inactive) | GI50 [23]: > 100 µM (inactive) | GI50 [24]: > 100 µM (inactive) | GI50 [25]: 26 µM (inactive) | GI50 [26]: > 100 µM (inactive) | GI50 [27]: 63 µM (inactive) | GI50 [28]: > 100 µM (inactive) | GI50 [29]: > 100 µM (inactive) | GI50 [30]: > 100 µM (inactive) | GI50 [31]: > 100 µM (inactive) | GI50 [32]: > 100 µM (inactive) | GI50 [33]: > 100 µM (inactive) | GI50 [34]: > 100 µM (inactive) | GI50 [35]: > 100 µM (inactive) | GI50 [36]: > 100 µM (inactive) | GI50 [37]: 60.3 µM (inactive) | GI50 [38]: 50.5 µM (inactive) | GI50 [39]: 98.2 µM (inactive) | GI50 [40]: > 100 µM (inactive) | GI50 [41]: > 100 µM | GI50 [42]: > 100 µM (inactive) | GI50 [43]: > 100 µM (inactive) | GI50 [44]: > 100 µM (inactive) | GI50 [45]: > 100 µM (inactive) | GI50 [46]: > 100 µM (inactive) | GI50 [47]: > 100 µM (inactive) | GI50 [48]: > 100 µM (inactive) | GI50 [49]: 94.6 µM (inactive) | GI50 [50]: > 100 µM (inactive)

COC(=O)/C(=N\Nc1nc(S)nn1N)C(C#N)c1ccccc1 (stereo not given)
GI50 [1]: > 100 µM (inactive) | GI50 [2]: > 100 µM (inactive) | GI50 [3]: > 100 µM (inactive) | GI50 [5]: > 100 µM (inactive) | GI50 [6]: > 100 µM (inactive) | GI50 [7]: > 100 µM (inactive) | GI50 [9]: > 100 µM (inactive) | GI50 [10]: > 100 µM (inactive) | GI50 [11]: > 100 µM (inactive) | GI50 [51]: > 100 µM (inactive) | GI50 [52]: > 100 µM (inactive) | GI50 [53]: > 100 µM (inactive) | GI50 [12]: > 100 µM (inactive) | GI50 [13]: > 100 µM (inactive) | GI50 [54]: > 100 µM (inactive) | GI50 [14]: > 100 µM (inactive) | GI50 [15]: > 100 µM (inactive) | GI50 [16]: > 100 µM (inactive) | GI50 [17]: > 100 µM (inactive) | GI50 [18]: > 100 µM (inactive) | GI50 [19]: > 100 µM (inactive) | GI50 [20]: > 100 µM (inactive) | GI50 [21]: > 100 µM (inactive) | GI50 [23]: > 100 µM (inactive) | GI50 [24]: > 100 µM (inactive) | GI50 [25]: > 100 µM (inactive) | GI50 [26]: > 100 µM (inactive) | GI50 [27]: > 100 µM (inactive) | GI50 [28]: > 100 µM (inactive) | GI50 [29]: > 100 µM (inactive) | GI50 [55]: > 100 µM (inactive) | GI50 [31]: > 100 µM (inactive) | GI50 [32]: > 100 µM (inactive) | GI50 [34]: > 100 µM (inactive) | GI50 [56]: > 100 µM (inactive) | GI50 [35]: > 100 µM (inactive) | GI50 [36]: > 100 µM (inactive) | GI50 [37]: > 100 µM (inactive) | GI50 [39]: > 100 µM (inactive) | GI50 [40]: > 100 µM (inactive) | GI50 [57]: > 100 µM (inactive) | GI50 [41]: > 100 µM | GI50 [42]: > 100 µM (inactive) | GI50 [43]: > 100 µM (inactive) | GI50 [44]: > 100 µM (inactive) | GI50 [45]: > 100 µM (inactive) | GI50 [46]: > 100 µM (inactive) | GI50 [47]: > 100 µM (inactive) | GI50 [48]: > 100 µM (inactive) | GI50 [50]: > 100 µM (inactive)

CCOc1ccc(N(CC(=O)N2CC(=O)Nc3cc(C)c(C)cc32)C(C)=O)cc1
GI50 [1]: > 100 µM (inactive) | GI50 [2]: > 100 µM (inactive) | GI50 [3]: > 100 µM (inactive) | GI50 [5]: > 100 µM (inactive) | GI50 [6]: > 100 µM (inactive) | GI50 [7]: > 100 µM (inactive) | GI50 [8]: > 100 µM (inactive) | GI50 [9]: > 100 µM (inactive) | GI50 [10]: > 100 µM (inactive) | GI50 [11]: > 100 µM (inactive) | GI50 [51]: > 100 µM (inactive) | GI50 [52]: 63.8 µM (inactive) | GI50 [53]: > 100 µM (inactive) | GI50 [12]: > 100 µM (inactive) | GI50 [13]: > 100 µM (inactive) | GI50 [58]: > 100 µM (inactive) | GI50 [54]: > 100 µM (inactive) | GI50 [14]: > 100 µM (inactive) | GI50 [15]: > 100 µM (inactive) | GI50 [16]: > 100 µM (inactive) | GI50 [17]: > 100 µM (inactive) | GI50 [18]: > 100 µM (inactive) | GI50 [20]: > 100 µM (inactive) | GI50 [21]: > 100 µM (inactive) | GI50 [22]: 83.2 µM (inactive) | GI50 [23]: > 100 µM (inactive) | GI50 [24]: > 100 µM (inactive) | GI50 [25]: > 100 µM (inactive) | GI50 [26]: 87.5 µM (inactive) | GI50 [27]: > 100 µM (inactive) | GI50 [28]: > 100 µM (inactive) | GI50 [29]: > 100 µM (inactive) | GI50 [30]: > 100 µM (inactive) | GI50 [55]: > 100 µM (inactive) | GI50 [31]: > 100 µM (inactive) | GI50 [32]: > 100 µM (inactive) | GI50 [33]: > 100 µM (inactive) | GI50 [34]: > 100 µM (inactive) | GI50 [56]: > 100 µM (inactive) | GI50 [35]: > 100 µM (inactive) | GI50 [36]: > 100 µM (inactive) | GI50 [37]: 75.7 µM (inactive) | GI50 [38]: > 100 µM (inactive) | GI50 [39]: > 100 µM (inactive) | GI50 [40]: > 100 µM (inactive) | GI50 [41]: > 100 µM | GI50 [42]: > 100 µM (inactive) | GI50 [43]: > 100 µM (inactive) | GI50 [44]: > 100 µM (inactive) | GI50 [45]: > 100 µM (inactive) | GI50 [46]: > 100 µM (inactive) | GI50 [47]: > 100 µM (inactive) | GI50 [48]: > 100 µM (inactive) | GI50 [49]: > 100 µM (inactive) | GI50 [50]: > 100 µM (inactive)
